Experimental data from US20250304616A1, “NOVEL PEPT[…] AND DESIGN” (priority 2020, published 2025).
Where two headings read alike, the source gives them in different places.

Tested on: recombinant rabies virus 1088 strain (1088/GLuc)
Test: microbe, parasite or virus in culture
Format: cell-based, rabies virus in Neuro-2a cells
Details: read-out: Anti-rabies activity

SMILES	IC50	IC50 (Lyssavirus rabies, N2a, 72 h)
COc1ccc(CN2C[C@@H]3C[C@H]4C(=O)N[C@]3(C(=O)NCc3ccccc3)[C@@H]2[C@@H]4CC(C)C)cc1 (relative stereo) [IB-5, (3S, 3aS, 6R′, 7R*, 7aS*) —N-benzyl-7-isobutyl-1-(4-methoxybenzyl)-5-oxooctahydro-3@H-3,6-methanopyrrolo[3,2-b]pyridine-3a-carboxamide]	< 10 µM	
CC(C)CC(=O)OCC1=CCN2C3CC(NC(=O)Cc4ccccc4)C1C2CN(Cc1ccccc1)C3 (stereo not shown) [12aab]		< 10 µM
COc1ccc(CN2C[C@H]3C[C@]4(C(=O)NCc5ccccc5)NC(=O)[C@H]3[C@H]2[C@H]4CC(C)C)cc1 (relative stereo) [IF-6, (3S*, 3aR*, 6S*, 7R*, 7aR*) —N-benzyl-7-isobutyl-1-(4-methoxybenzyl)-4-oxooctahydro-6H-3,6-methanopyrrolo[3,2-c]pyridine-6-carboxamide]		< 10 µM
COc1ccc(CN2CC3CC4(C(=O)NCc5ccccc5)NC(=O)C3C2C4CC(C)C)cc1F (stereo not shown) [IF-801]		< 10 µM
